Our source for the IC50 values is patent US8476430B2, “Fused heterocyclic compounds useful as kinase modulators” (Bristol-Myers Squibb Company, priority 2008, dated 2013).

The IC50 is the concentration needed to halve the response being measured.

One test concerns Ramos RA1 B cells. Briefly: Ramos FLIPR assay. In kind it is cell-based. The conditions noted are these: Homo sapiens, inhibition of peak intracellular calcium after F(ab')2 anti-IgM/IgG stimulation, read-out: Human Ramos Cell FLIPR (IC50 μM). On the procedure:
Ramos RA1 B cells (ATCC® CRL-1596) at a density of 2×10^6 cells/ml in RPMI minus phenol red (Invitrogen 11835-030) and 50 mM HEPES (Invitrogen 15630-130) containing 0.1% BSA (Sigma A8577) were added to one half volume of calcium loading buffer (BD bulk kit for probenecid sensitive assays, #640177) and incubated at room temperature in the dark for 1 hour. Dye-loaded cells were pelleted (Beckmann GS-CKR, 1200 rpm, RT, 5 minutes) and resuspended in RT RPMI minus phenol red with 50 mM HEPES and 10% FBS to a density of 1×10^6 cells/ml. 150 μl aliquots (150,000/well) were plated into 96 well poly-D-lysine coated assay plates (BD 35 4640) and briefly centrifuged (Beckmann GS-CKR 800 rpm, 5 minutes, without brake). 50 μal compound dilutions in 0.4% DMSO/RPMI minus phenol red+50 mM HEPES+10% FBS were added to the wells and the plate was incubated at RT in the dark for 1 hour. Assay plate was briefly centrifuged as above prior to measuring calcium levels.
Using the FLIPR1 (Molecular devices), cells were stimulated by adding 50 μl 200 μg/ml F(ab′)2 anti-IgM/IgG (Jackson ImmunoResearch 109-006-127) diluted in 1×HBSS (Invitrogen 14025-076), 50 mM HEPES, 0.1% BSA. Changes in intracellular calcium concentrations were measured for 180 seconds and percent inhibition was determined relative to peak calcium levels seen in the presence of F(ab′)2 anti-IgM/IgG only.
Background: Calcium flux is commonly read through the fluorescence of an indicator in the cells.

A further test has as its target T1, human recombinant Btk (Homo sapiens, UniProt Q06187).
T1 construct: purchased Invitrogen Corporation
The test is described as follows: Human recombinant Btk enzyme assay. Conditions: human recombinant Btk 1 nM, ATP 20 μM, 60 min room temperature. In kind it is biochemical. The protocol:
Human Recombinant Btk Enzyme Assay
To V-bottom 384-well plates were added test compounds, human recombinant Btk (1 nM, Invitrogen Corporation), fluoresceinated peptide (1.5 μM), ATP (20 μM), and assay buffer (20 mM HEPES pH 7.4, 10 mM MgCl2, 0.015% Brij35 and 4 mM DTT in 1.6% DMSO), with a final volume of 30 μL. After incubating at room temperature for 60 min, the reaction was terminated by adding 45 μl of 35 mM EDTA to each sample. The reaction mixture was analyzed on the Caliper LABCHIP® 3000 (Caliper, Hopkinton, Mass.) by electrophoretic separation of the fluorescent substrate and phosphorylated product. Inhibition data were calculated by comparison to no enzyme control reactions for 100% inhibition and no inhibitor controls for 0% inhibition. Dose response curves were generated to determine the concentration required inhibiting 50% of kinase activity (IC50). Compounds were dissolved at 10 mM in dimethylsulfoxide (DMSO) and evaluated at eleven concentrations.

T1 sequence (Q06187 whole entry): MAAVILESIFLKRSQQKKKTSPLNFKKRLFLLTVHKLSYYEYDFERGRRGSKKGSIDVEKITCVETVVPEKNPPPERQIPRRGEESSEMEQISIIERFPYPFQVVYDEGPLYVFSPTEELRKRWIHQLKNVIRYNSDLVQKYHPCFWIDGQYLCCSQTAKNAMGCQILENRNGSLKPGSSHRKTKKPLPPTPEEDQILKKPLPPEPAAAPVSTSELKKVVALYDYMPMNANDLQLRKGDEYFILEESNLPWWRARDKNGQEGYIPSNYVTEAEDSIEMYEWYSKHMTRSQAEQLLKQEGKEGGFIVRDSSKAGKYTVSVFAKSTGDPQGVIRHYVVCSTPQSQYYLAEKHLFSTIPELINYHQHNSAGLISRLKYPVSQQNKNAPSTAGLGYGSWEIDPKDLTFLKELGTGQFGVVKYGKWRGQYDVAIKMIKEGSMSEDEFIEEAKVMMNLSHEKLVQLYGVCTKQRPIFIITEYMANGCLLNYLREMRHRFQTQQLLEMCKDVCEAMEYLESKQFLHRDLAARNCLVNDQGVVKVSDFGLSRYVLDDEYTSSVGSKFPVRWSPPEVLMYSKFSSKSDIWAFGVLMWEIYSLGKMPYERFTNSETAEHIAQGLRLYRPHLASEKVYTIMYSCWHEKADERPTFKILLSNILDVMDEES

Turning to `Cc1c(NC(=O)c2ccc(C(C)(C)C)cc2)cccc1-c1nc(Nc2ccc(C(=O)N3CCOCC3)cc2)c2nccn2n1` [Example 1, 4-tert-Butyl-N-(2-methyl-3-(4-(4-(morpholine-4-carbonyl)phenylamino)imidazo[1,2-f][1,2,4]triazin-2-yl)phenyl)benzamide], the IC50 in the test on Ramos RA1 B cells amounted to 0.028 µM; on human recombinant Btk, 46 nM.
